Results reported in patent US9403792B2, “Methods of using pyruvate kinase activators” (AGIOS PHARMACEUTICALS, INC, priority 2011, dated 2016).

What was measured:
Type in all cases: biochemical
PKR wt = PKR wt (Homo sapiens, UniProt P30613); test: PKR WT Single Point Percent Activation Assay; conditions: compound at 1 μM
Protocol: PKR WT Single Point Percent Activation Assay
(§1) A compound described herein was diluted with DMSO and tested at 1 μM concentration. The enzyme was diluted in 1× Buffer: (100 mM KCl, 50 mM Tris 7.5, 5 mM MgCl2, 1 mM DTT, 0.03% BSA). 2 μL of compound solution was first added into wells, and then 180 μL of enzyme solution was added. Assays were assembled except for ADP, and plates were stored for 60 minutes at RT. 20 μL ADP was added to start the assay and assay output was evaluated using OD340 at SpectraMax. The assay was run at room temperature.
Final Concentration: PKR wt (100 ng/well), Tris pH 7.5 (50 mM), KCl (100 mM), MgCl2 (5 mM), ADP (0.48 mM), PEP (0.15 mM), NADH (180 μM), LDH (0.5 units, Sigma 59023), DTT (1 mM) and BSA (0.03%).

PKR T384W [1] = molecular target: T1, PKR T384W (Homo sapiens, UniProt P30613, T384W); test: PKR T384W Single Point Percent Activation Assay; conditions: compound at 1 μM; for activation at 1 µM: read-out: % Act. T384W
T1 sequence (P30613 whole entry T384W): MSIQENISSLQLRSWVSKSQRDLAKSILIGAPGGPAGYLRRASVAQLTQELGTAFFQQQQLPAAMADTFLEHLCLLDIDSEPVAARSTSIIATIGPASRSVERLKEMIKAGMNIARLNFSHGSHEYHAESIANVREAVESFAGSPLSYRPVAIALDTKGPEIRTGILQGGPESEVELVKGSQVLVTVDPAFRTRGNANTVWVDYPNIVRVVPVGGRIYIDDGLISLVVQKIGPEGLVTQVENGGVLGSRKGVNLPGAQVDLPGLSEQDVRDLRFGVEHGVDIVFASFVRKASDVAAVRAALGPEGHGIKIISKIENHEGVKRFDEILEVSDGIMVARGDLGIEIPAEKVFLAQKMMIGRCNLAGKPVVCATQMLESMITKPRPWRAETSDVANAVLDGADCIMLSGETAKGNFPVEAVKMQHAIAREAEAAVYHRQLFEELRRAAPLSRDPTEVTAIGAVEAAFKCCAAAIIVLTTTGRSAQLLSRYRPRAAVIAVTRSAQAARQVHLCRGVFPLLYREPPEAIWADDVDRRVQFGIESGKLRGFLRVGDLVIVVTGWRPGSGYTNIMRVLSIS
Protocol: PKR T384W Single Point Percent Activation Assay
as §1, with “180 μL enzyme solution” for “180 μL of enzyme solution”
Final Concentration: PKR T384W soluble (300 ng/well), Tris pH 7.5 (50 mM), KCl (100 mM), MgCl2 (5 mM), ADP (0.08 mM), PEP (0.23 mM), NADH (180 μM), LDH (0.5 units, Sigma 59023), DTT (1 mM) and BSA (0.03%).

PKR R532W [2] = molecular target: T2, PKR R532W (Homo sapiens, UniProt P30613, R532W); test: PKR R532W Single Point Percent Activation Assay; conditions: compound at 1 μM; for activation at 1 µM: read-out: % Act. R532W
T2 sequence (P30613 whole entry R532W): as the sequence (P30613 whole entry T384W) above, with W384T, R532W counted along it
Protocol: PKR R532W Single Point Percent Activation Assay
as §1
Final Concentration: PKR R532W (100 ng/well), Tris pH 7.5 (50 mM), KCl (100 mM), MgCl2 (5 mM), ADP (0.36 mM), PEP (0.1 mM), NADH (180 μM), LDH (0.5 units, Sigma 59023), DTT (1 mM) and BSA (0.03%).

PKR R510Q [3] = molecular target: T3, PKR R510Q (Homo sapiens, UniProt P30613, R510Q); test: PKR R510Q Single Point Percent Activation Assay; conditions: compound at 1 μM; for activation at 1 µM: read-out: % Act. R510Q
T3 sequence (P30613 whole entry R510Q): as the sequence (P30613 whole entry T384W) above, with W384T, R510Q counted along it
Protocol: PKR R510Q Single Point Percent Activation Assay
as §1
Final Concentration: PKR R510Q (40 ng/well), Tris pH 7.5 (50 mM), KCl (100 mM), MgCl2 (5 mM), ADP (0.2 mM), PEP (0.11 mM), NADH (180 μM), LDH (0.5 units, Sigma 59023), DTT (1 mM) and BSA (0.03%).

PKR G364D = PKR G364D (Homo sapiens, UniProt P30613, G364D); test: PKR Mutant Assay (AC50), PKR G364D
PKR G364D, sequence (P30613 whole entry G364D): as the sequence (P30613 whole entry T384W) above, with G364D, W384T counted along it
Protocol: (§2) • PKR or PKR mutant enzyme solution was diluted in assay buffer. 2 μL of test compound was added into wells first, and then 180 μL reaction mix was added. • Reactions mixture with test compound was assembled except for ADP, and plates were stored for 60 minutes at room temperature. • 20 uL ADP was added to start reaction at room temperature and reaction progress was measured as changes in absorbance at 340 nm wavelength at room temperature. Test Compound Preparation: • Test compound stock was made at 100× concentration in 100% DMSO (10 mM) • 1 to 3 dilutions were made for 11 points (i.e. 50 μl of first concentration added to 100 μl 100% DMSO to yield 3.33 mM, 50 μl of this added to 100 μl DMSO to yield 1.11 mM, and so forth) • 1 to 100 dilution into assay (2 μl in 200 μl) yielded starting concentration of 100 μM, decreasing 3 fold for 11 points. Assay Buffer: 100 mM KCl, 50 mM Tris 7.5, 5 mM MgCl2, 1 mM DTT, 0.03% BSA Reaction Mixture: PKR mutant enzyme: 80-400 ng/well; ADP: 0.22-1.65 mM; PEP: 0.1-0.5 mM; NADH: 180 uM; LDH: 0.5 units (Sigma#59023); DTT: 1 mM; BSA: 0.03%.

PKR R479H = PKR R479H (Homo sapiens, UniProt P30613, R479H); test: PKR Mutant Assay (AC50), PKR R479H
PKR R479H, sequence (P30613 whole entry R479H): as the sequence (P30613 whole entry T384W) above, with W384T, R479H counted along it
Protocol: as §2

PKR T384W [4] = molecular target: T1, PKR T384W; test: PKR Mutant Assay (AC50), PKR T384W
Protocol: as §2

PKR R510Q [5] = molecular target: T3, PKR R510Q; test: PKR Mutant Assay (AC50), PKR R510Q
Protocol: as §2

wild type PKR = wild type PKR (Homo sapiens, UniProt P30613); test: PKR Mutant Assay (AC50), wild type PKR; conditions: read-out: PKR WT AC50
wild type PKR, sequence (P30613 whole entry): as the sequence (P30613 whole entry T384W) above, with W384T counted along it
Protocol: as §2

PKR G332S = PKR G332S (Homo sapiens, UniProt P30613, G332S); test: PKR Mutant Assay (AC50), PKR G332S
PKR G332S, sequence (P30613 whole entry G332S): as the sequence (P30613 whole entry T384W) above, with G332S, W384T counted along it
Protocol: as §2

PKR R532W [6] = molecular target: T2, PKR R532W; test: PKR Mutant Assay (AC50), PKR R532W
Protocol: as §2

PKR wt, sequence (P30613 whole entry): as the sequence (P30613 whole entry T384W) above, with W384T counted along it

SMILES	activation at 1 µM (PKR wt)	activation at 1 µM (PKR T384W [1])	activation at 1 µM (PKR R532W [2])	activation at 1 µM (PKR R510Q [3])	AC50 (PKR G364D)	AC50 (PKR R479H)	AC50 (PKR T384W [4])	AC50 (PKR R510Q [5])	AC50 (wild type PKR)	AC50 (PKR G332S)	AC50 (PKR R532W [6])	% Act. WT (PKR wt)	% Act. T384W (PKR T384W [1])	% Act. R532W (PKR R532W [2])	% Act. R510Q (PKR R510Q [3])
Nc1cccc(S(=O)(=O)N2CCN(S(=O)(=O)c3ccc4c(c3)OCCO4)CC2)c1	1 to 100%	1 to 100%	101 to 500%	1 to 100%	–	–	–	–	–	–	–	–	–	–	–
COc1cccc(Cn2ncc3c4sc([S+](C)[O-])cc4n(C)c3c2=O)c1 (centres unmarked)	1 to 100%	1 to 100%	101 to 500%	101 to 500%	< 100 nM	< 100 nM	< 100 nM	< 100 nM	< 100 nM	< 100 nM	< 100 nM	–	–	–	–
CSc1cc2c(s1)c1cnn(Cc3cccc(O)c3)c(=O)c1n2C	101 to 500%	101 to 500%	101 to 500%	> 500%	< 100 nM	< 100 nM	< 100 nM	< 100 nM	< 100 nM	< 100 nM	< 100 nM	–	–	–	–
CCCCCn1ncc2c3sc(C)cc3n(C)c2c1=O	101 to 500%	101 to 500%	101 to 500%	101 to 500%	–	–	–	–	–	–	–	–	–	–	–
Cn1c2cc([S+](C)[O-])sc2c2cnn(Cc3ccccc3F)c(=O)c21 (centres unmarked)	101 to 500%	101 to 500%	101 to 500%	101 to 500%	101 to 500 nM	101 to 500 nM	> 500 nM	101 to 500 nM	101 to 500 nM	> 500 nM	> 500 nM	–	–	–	–
Cn1c2cc([S+](C)[O-])sc2c2cnn(Cc3cccc(O)c3)c(=O)c21 (centres unmarked)	101 to 500%	101 to 500%	101 to 500%	101 to 500%	< 100 nM	< 100 nM	< 100 nM	< 100 nM	< 100 nM	< 100 nM	< 100 nM	–	–	–	–
Nc1cccc(S(=O)(=O)N2CCCN(S(=O)(=O)c3ccc4c(c3)OCCO4)CC2)c1 [drawing 17]	–	–	–	–	–	–	–	–	–	–	–	B (a % activation at 1 μM of from 101 to 500)	B (a % activation at 1 μM of from 101 to 500)	A (a % activation at 1 μM of from 1 to 100)	B (a % activation at 1 μM of from 101 to 500)

The next lines start with results.

activation at 1 µM (PKR wt)	activation at 1 µM (PKR T384W [1])	activation at 1 µM (PKR R532W [2])	activation at 1 µM (PKR R510Q [3])	AC50 (PKR G364D)	AC50 (PKR R479H)	AC50 (PKR T384W [4])	AC50 (PKR R510Q [5])	AC50 (wild type PKR)	AC50 (PKR G332S)	AC50 (PKR R532W [6])	SMILES	% Act. WT (PKR wt)	% Act. T384W (PKR T384W [1])	% Act. R532W (PKR R532W [2])	% Act. R510Q (PKR R510Q [3])
101 to 500%	1 to 100%	1 to 100%	101 to 500%	–	–	–	–	–	–	–	O=S(=O)(c1ccc2c(c1)OCCO2)N1CCN(S(=O)(=O)c2c(F)cccc2F)CC1	–	–	–	–
101 to 500%	101 to 500%	101 to 500%	101 to 500%	–	–	–	–	–	–	–	O=S(=O)(c1ccc2c(c1)OCCO2)N1CCCN(S(=O)(=O)c2c(F)cccc2F)CC1	–	–	–	–
101 to 500%	101 to 500%	101 to 500%	101 to 500%	–	–	–	–	–	–	–	COc1cc(F)c(S(=O)(=O)N2CCN(S(=O)(=O)c3cccc(N)c3)CC2)c(F)c1	–	–	–	–
101 to 500%	101 to 500%	101 to 500%	101 to 500%	–	–	–	–	–	–	–	Nc1cccc(S(=O)(=O)N2CCN(S(=O)(=O)c3c(F)cccc3F)CC2)c1	–	–	–	–
101 to 500%	101 to 500%	101 to 500%	101 to 500%	–	–	–	–	–	–	–	COc1cc(F)c(S(=O)(=O)N2CCCN(S(=O)(=O)c3cccc(N)c3)CC2)c(F)c1	–	–	–	–
101 to 500%	101 to 500%	–	101 to 500%	–	–	–	–	–	–	–	Nc1cccc(S(=O)(=O)N2CCCN(S(=O)(=O)c3ccc4c(c3)OCCO4)CC2)c1 [drawing 23]	–	–	B (a % activation at 1 μM of from 101 to 500)	–
